According to patent US5919761A, “Peptides for heparin and low molecular weight heparin anticoagulation reversal” (The Board of Regents of the University of Michigan, priority 1995, dated 1999):
Values joined by “and” are separate entries in the source; they are usually repeats but may differ in a detail not shown here. Equal entries are not always repeated. Peptide text beside a SMILES is read from it.

Assays:
[1] = Hemodynamic studies and total toxicity score after standard heparin reversal at different rates, dogs
Experimental: Hemodynamic studies were conducted by measuring mean arterial pressure (MAP) in mm Mercury, maximum percent changes in cardiac output (CO) and systemic oxygen consumption (VO2), and heart rate (HR) in beats per minute. Measurements and calculations were made at baseline, before LMWH administration, 3 minutes before reversal, every 30 seconds for 5 minutes after reversal.
(§1) TTS were developed that reflected maximum declines in each of four parameters (MAP, CO, VO2 and HR) over the first 5 minutes after reversal in the same manner as described hereinabove.

LMWH (Enoxaparin) = experiment: Factor Xa and IIa reversal after LMWH Enoxaparin, canine study; format: in vivo; details: dogs, 3 min
Experimental: Similar studies were conducted to assess the ability of the protamine-like peptide analogs described in this section to reverse the anticoagulation effects of the LMWH, Enoxaparin. FIG. 5a through FIG. 5d are graphical representations of LMWH anticoagulation activities achieved by n-protamine (Protamine [+21]), and compounds [+18BE], [+18KDEL], and [+18RGD] plotted as a percent of reversal against time in minutes. […] Referring to FIG. 5c, compound [+18RGD] dramatically outperforms n-protamine in reversing the heparin antifactor Xa activity of Enoxaparin.

[2] = Percent change in platelet count after Enoxaparin reversal, canine study; format: in vivo; details: dogs, agent over 10 seconds
Experimental: (§2) Seven female dogs (mean weight 15-20 kg) received intravenous standard, unfractionated heparin (150 IU/kg IV) or LMWH (Enoxaparin, Rhone-Poulac, France; 100 IU/kg factor Xa activity) followed by reversal with commercial salmine protamine (n-protamine purchased from Eli Lilly, Indianapolis, Ind., 1.5 mg/kg (100 IU/mg) IV) or an anticoagulation-reversing agent which is a protamine-like peptide variant identified hereinbelow. In these studies, the anticoagulation-reversing agents were administered over a 10 second interval to maximize the hemodynamic effects.

[3] = tested on: standard, unfractionated heparin; experiment: Factor Xa and IIa reversal after standard heparin, cell adhesion ligand analogs, canine study; format: in vivo; details: dogs, 3 min post administration
Experimental: Anticoagulation reversal was assessed by a number of standard coagulation tests performed upon samples of venous blood in the manner described hereinabove. Measurements were made 3 minutes prior to heparin reversal (baseline) and 3 minutes, 10 minutes, and 30 minutes post-administration of the heparin reversal agent. […] Referring to FIGS. 4a through 4d, compound [+18RGD] performs as well, or better, than n-protamine in the standard coagulation tests performed in these studies.

standard heparin = experiment: Percent reversal of standard heparin anticoagulation by peptide [+18BE] administered at different rates, dogs; format: in vivo
[4] = Maximum hemodynamic changes and total toxicity score after standard heparin reversal, cell adhesion ligand analogs, canine study; details: dogs, agent over 10 seconds
Experimental: In these studies, the anticoagulation-reversing agents were administered over a 10 second interval to maximize the hemodynamic effects.
Hemodynamic studies were conducted by measuring mean blood pressure (Mean BP) in mm Mercury, maximum percent changes in cardiac output (CO) and systemic oxygen consumption (VO2), and heart rate (HR) in beats per minute. Measurements and calculations were made at baseline, before administration of standard, unfractionated heparin, 3 minutes before reversal, every 30 seconds for 5 minutes after reversal.
Total toxicity scores (TTS) were developed in accordance with the method described hereinabove that reflected maximum declines in each of four parameters (MAP, CO, VO2 and HR) over the first 5 minutes after reversal.

[5] = Percent change in platelet count after standard heparin reversal, cell adhesion ligand analogs, canine study; format: in vivo; details: dogs, agent over 10 seconds
Experimental: In addition to hemodynamic changes, Table 15 lists the percent change in platelet count following administration of n-protamine and the selected variants, as well as the factor Xa and factor IIa reversal, as a percent change at 3 minutes post administration of the compound.

[6] = Platelet count, leukocyte count and bleeding time after LMWH reversal at different rates, canine study; format: in vivo, dogs
Experimental: (§3) The anticoagulation-reversing agents were administered rapidly over 10 seconds to maximize hemodynamic effects or more slowly over a 3 minute interval. Changes in LMWH anticoagulation occurring from metabolism alone were determined in a separate group of dogs not given any reversal agent.

[7] = Hemodynamic studies and total toxicity score after LMWH reversal at different rates, canine study; details: dogs, Logiparin
Experimental: as §3
Hemodynamic studies were conducted by measuring mean arterial pressure (MAP) in mm Mercury, maximum percent changes in cardiac output (CO) and systemic oxygen consumption (VO2), and heart rate (HR) in beats per minute. Measurements and calculations were made at baseline, before LMWH administration, 3 minutes before reversal, every 30 seconds for 5 minutes after reversal, and at 10, 20, and 30 minutes after reversal.
as §1

LMWH (LHN-1, Logiparin) = experiment: Percent reversal of LMWH anticoagulation, agents administered at different rates, canine study; format: in vivo, dogs
Experimental: Anticoagulation reversal was assessed by a number of standard coagulation tests performed upon samples of venous blood in the manner described hereinabove. Measurements were made 3 minutes prior to heparin reversal (baseline) and 3 minutes, 10 minutes, and 30 minutes post-administration of the heparin reversal agent.

[8] = Maximum hemodynamic changes and total toxicity score after Enoxaparin reversal, canine study; details: dogs, agent over 10 seconds
Experimental: as §2

[9] = administered over 10 sec, 3 min
[10] = administered over 10 sec, 10 min
[11] = administered over 10 sec, 30 min
[12] = administered over 3 min, 10 min
[13] = administered over 3 min, 30 min
[14] = dogs, Logiparin, administered over 10 sec
[15] = dogs, Logiparin, administered over 3 min

CC(=O)N[C@@H](CCC(=O)O)C(=O)N[C@@H](C)C(=O)N[C@@H](C)C(=O)N[C@@H](CCCCN)C(=O)N[C@@H](CCCCN)C(=O)N[C@@H](C)C(=O)N[C@@H](C)C(=O)N[C@@H](CCCCN)C(=O)N[C@@H](CCCCN)C(=O)N[C@@H](C)C(=O)N[C@@H](CCCCN)C(=O)N[C@@H](CCCCN)C(=O)N[C@@H](C)C(=O)N[C@@H](C)C(=O)N[C@@H](CCCCN)C(=O)N[C@@H](CCCCN)C(=O)N[C@@H](C)C(=O)N[C@@H](CCCCN)C(=O)N[C@@H](CCCCN)C(=O)N[C@@H](C)C(=O)N[C@@H](C)C(=O)N[C@@H](CCCCN)C(=O)N[C@@H](CCCCN)C(=O)N[C@@H](C)C(=O)N[C@@H](CCCCN)C(=O)N[C@@H](CCCCN)C(=O)N[C@@H](C)C(=O)N[C@@H](C)C(=O)N[C@@H](CCCCN)C(=O)N[C@@H](CCCCN)C(=O)N[C@@H](C)C(=O)N[C@@H](CCCCN)C(=O)N[C@@H](CCCCN)C(N)=O [[+18BE], acetyl-EA2 (K2 A2 K2 A)4 K2 amide] (Ac-EAAKKAAKKAKKAAKKAKKAAKKAKKAAKKAKK-NH2)
Total Toxicity Score ([1]; administered over 10 sec): -2.14 ± 0.40 | ΔCO ([1]; administered over 10 sec): -9% | ΔHR ([1]; administered over 10 sec): -8 beats per minute | ΔMAP ([1]; administered over 10 sec): -1 mm Mercury | ΔVO2 ([1]; administered over 10 sec): -9% | Total Toxicity Score ([1]; administered over 3 min): -1.96 ± 0.55 | ΔCO ([1]; administered over 3 min): -17% | ΔHR ([1]; administered over 3 min): -8 beats per minute | ΔMAP ([1]; administered over 3 min): 1 mm Mercury | ΔVO2 ([1]; administered over 3 min): -10% | IIa Reversal (LMWH (Enoxaparin)): 88% | Xa Reversal (LMWH (Enoxaparin)): 40% | Platelet (percent change in platelet count) [2]: -35% | IIa Reversal [3]: 100% | Xa Reversal [3]: 99% | Percent reversal of standard heparin anticoagulation, FNa (standard heparin; [9]): 100% | Percent reversal of standard heparin anticoagulation, FXa (standard heparin; [9]): 99% | Percent reversal of standard heparin anticoagulation, TCT (standard heparin; [9]): 100% | Percent reversal of standard heparin anticoagulation, ACT (standard heparin; [10]): 98% | Percent reversal of standard heparin anticoagulation, FNa (standard heparin; [10]): 99% | Percent reversal of standard heparin anticoagulation, FXa (standard heparin; [10]): 95% | Percent reversal of standard heparin anticoagulation, TCT (standard heparin; [10]): 98% | Percent reversal of standard heparin anticoagulation, ACT (standard heparin; [11]): 96% | Percent reversal of standard heparin anticoagulation, FNa (standard heparin; [11]): 100% | Percent reversal of standard heparin anticoagulation, FXa (standard heparin; [11]): 97% | Percent reversal of standard heparin anticoagulation, TCT (standard heparin; [11]): 98% | Percent reversal of standard heparin anticoagulation, FNa (standard heparin; administered over 3 min, 3 min): 99% | Percent reversal of standard heparin anticoagulation, FXa (standard heparin; administered over 3 min, 3 min): 99% | Percent reversal of standard heparin anticoagulation, TCT (standard heparin; administered over 3 min, 3 min): 100% | Percent reversal of standard heparin anticoagulation, ACT (standard heparin; [12]): 98% | Percent reversal of standard heparin anticoagulation, FNa (standard heparin; [12]): 98% | Percent reversal of standard heparin anticoagulation, FXa (standard heparin; [12]): 97% | Percent reversal of standard heparin anticoagulation, TCT (standard heparin; [12]): 100% | Percent reversal of standard heparin anticoagulation, ACT (standard heparin; [13]): 98% | Percent reversal of standard heparin anticoagulation, FNa (standard heparin; [13]): 99% | Percent reversal of standard heparin anticoagulation, FXa (standard heparin; [13]): 96% | Percent reversal of standard heparin anticoagulation, TCT (standard heparin; [13]): 100% | Percent reversal of standard heparin anticoagulation, ACT (standard heparin; dogs (n=7), administered over 10 sec, 3 min post-administration): 95% | Percent reversal of standard heparin anticoagulation, ACT (standard heparin; dogs (n=7), administered over 3 min, 3 min post-administration): 98% | Maximum hemodynamic change, Mean BP ([4]; standard heparin 150 IU/kg IV, 5 minutes): -1 mm Mercury | Maximum hemodynamic change, CO ([4]; standard heparin, 5 minutes): -9% | Maximum hemodynamic change, HR ([4]; standard heparin, 5 minutes): -8 beats/min | Maximum hemodynamic change, VO2 ([4]; standard heparin, 5 minutes): -9% | Total Toxicity Score ([4]; standard unfractionated heparin): -2.41 ± 0.47 | Platelet (percent change in platelet count) [5]: -46% | Maximal decline in leukocyte count [6, 14]: -1% | Maximal thrombocytopenia [6, 14]: -44% | Maximal decline in leukocyte count [6, 15]: -7% | Maximal thrombocytopenia [6, 15]: -49% | thrombocytopenia (platelet count change) ([6]; dogs, Logiparin, by 10 minutes, administered over a 3 minute interval): -8% | platelet count rebound ([6]; dogs, Logiparin, by 30 minutes, administered over a 3 minute interval): +35% | bleeding time ([6]; selected animals, given over a 3 minute interval): ≤ 8 min | Total Toxicity Score ([7]; administered over 10 sec): -2.3 ± 3.6 | ΔCO ([7]; administered over 10 sec): -11% | ΔHr ([7]; administered over 10 sec): -13 beats per minute | ΔMAP ([7]; administered over 10 sec): -8 mm Mercury | ΔVO2 ([7]; administered over 10 sec): -12% | Total Toxicity Score ([7]; administered over 3 min): -2.2 ± 1.7 | ΔCO ([7]; administered over 3 min): -7% | ΔHr ([7]; administered over 3 min): -5 beats per minute | ΔMAP ([7]; administered over 3 min): 0 mm Mercury | ΔVO2 ([7]; administered over 3 min): -10% | Percent reversal of LMWH anticoagulation, FNa (LMWH (LHN-1, Logiparin); [9]): 99% | Percent reversal of LMWH anticoagulation, FXa (LMWH (LHN-1, Logiparin); [9]): 73% | Percent reversal of LMWH anticoagulation, TCT (LMWH (LHN-1, Logiparin); [9]): 100% | Percent reversal of LMWH anticoagulation, ACT (LMWH (LHN-1, Logiparin); [10]): 78% | Percent reversal of LMWH anticoagulation, FNa (LMWH (LHN-1, Logiparin); [10]): 83% | Percent reversal of LMWH anticoagulation, FXa (LMWH (LHN-1, Logiparin); [10]): 51% | Percent reversal of LMWH anticoagulation, TCT (LMWH (LHN-1, Logiparin); [10]): 95% | Percent reversal of LMWH anticoagulation, ACT (LMWH (LHN-1, Logiparin); [11]): 81% | Percent reversal of LMWH anticoagulation, FNa (LMWH (LHN-1, Logiparin); [11]): 79% | Percent reversal of LMWH anticoagulation, FXa (LMWH (LHN-1, Logiparin); [11]): 59% | Percent reversal of LMWH anticoagulation, TCT (LMWH (LHN-1, Logiparin); [11]): 95% | Percent reversal of LMWH anticoagulation, FNa (LMWH (LHN-1, Logiparin); administered over 3 min, 3 min): 94% | Percent reversal of LMWH anticoagulation, FXa (LMWH (LHN-1, Logiparin); administered over 3 min, 3 min): 91% | Percent reversal of LMWH anticoagulation, TCT (LMWH (LHN-1, Logiparin); administered over 3 min, 3 min): 100% | Percent reversal of LMWH anticoagulation, ACT (LMWH (LHN-1, Logiparin); [12]): 95% | Percent reversal of LMWH anticoagulation, FNa (LMWH (LHN-1, Logiparin); [12]): 99% | Percent reversal of LMWH anticoagulation, FXa (LMWH (LHN-1, Logiparin); [12]): 68% | Percent reversal of LMWH anticoagulation, TCT (LMWH (LHN-1, Logiparin); [12]): 100% | Percent reversal of LMWH anticoagulation, ACT (LMWH (LHN-1, Logiparin); [13]): 97% | Percent reversal of LMWH anticoagulation, FNa (LMWH (LHN-1, Logiparin); [13]): 84% | Percent reversal of LMWH anticoagulation, FXa (LMWH (LHN-1, Logiparin); [13]): 60% | Percent reversal of LMWH anticoagulation, TCT (LMWH (LHN-1, Logiparin); [13]): 99% | Percent reversal of LMWH anticoagulation, ACT (LMWH (LHN-1, Logiparin); dogs, Logiparin, agent administered over 10 sec, 3 min post-administration): 65% | Percent reversal of LMWH anticoagulation, ACT (LMWH (LHN-1, Logiparin); dogs, Logiparin, agent administered over 3 min, 3 min post-administration): 89% | Maximum hemodynamic change, Mean BP ([8]; Enoxaparin 100 IU/kg, 5 minutes): -1 mm Mercury | Total Toxicity Score (TTS) ([8]; Enoxaparin): -3.89 and -3.89 ± 2.37 | Maximum hemodynamic change, CO ([8]; Enoxaparin, 5 minutes): -5% | Maximum hemodynamic change, HR ([8]; Enoxaparin, 5 minutes): -4 beats/min | Maximum hemodynamic change, VO2 ([8]; Enoxaparin, 5 minutes): -6%
